Laboratory results published in PubChem BioAssay AID248 (DTP/NCI, 2004).
“And” between values parts separate entries of the source, which are not always exact repeats. Equal entries are not always repeated. Toxic doses and inconclusive results are not listed. No stated cut-off is given here; in the data, active means T/C of 150% or more; inactive means T/C below 125%.

System: L1210 leukemia ip in BDF1 mice, survival T/C
Assay: NCI In Vivo Anticancer Drug Screen. Data for tumor model L1210 Leukemia (intraperitoneal) in B6D2F1 (BDF1) mice
Conditions: endpoint: mean survival time, higher = longer survival
Method in brief: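 Ratio derived from survival: compound-dosed mice over vehicle-dosed mice, all bearing a transplantable tumor.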

[1] = dose: 12.5 mg/kg/injection, schedule: Q01DX009 (ip), vehicle: Klucel (hydroxypropylcellulose) (HPC)
[2] = dose: 12.5 mg/kg/injection, schedule: Q04DX003 (ip), vehicle: Klucel (hydroxypropylcellulose) (HPC)
[3] = dose: 25.0 mg/kg/injection, schedule: Q01DX009 (ip), vehicle: Klucel (hydroxypropylcellulose) (HPC)
[4] = dose: 25.0 mg/kg/injection, schedule: Q04DX003 (ip), vehicle: Klucel (hydroxypropylcellulose) (HPC)
[5] = dose: 100.0 mg/kg/injection, schedule: Q01DX009 (ip), vehicle: saline with Tween-80
[6] = dose: 100.0 mg/kg/injection, schedule: Q04DX003 (ip), vehicle: saline with Tween-80
[7] = dose: 200.0 mg/kg/injection, schedule: Q01DX009 (ip), vehicle: saline with Tween-80
[8] = dose: 200.0 mg/kg/injection, schedule: Q04DX003 (ip), vehicle: saline with Tween-80
[9] = dose: 75.0 mg/kg/injection, schedule: Q01DX001 (ip), vehicle: other
[10] = dose: 150.0 mg/kg/injection, schedule: Q01DX001 (ip), vehicle: other
[11] = dose: 300.0 mg/kg/injection, schedule: Q01DX001 (ip), vehicle: other
[12] = dose: 100.0 mg/kg/injection, schedule: Q01DX001 (ip), vehicle: saline
[13] = dose: 200.0 mg/kg/injection, schedule: Q01DX001 (ip), vehicle: saline
[14] = dose: 400.0 mg/kg/injection, schedule: Q04DX003 (ip), vehicle: saline with Tween-80
[15] = dose: 50.0 mg/kg/injection, schedule: Q01DX009 (ip), vehicle: Klucel (hydroxypropylcellulose) (HPC)
[16] = dose: 100.0 mg/kg/injection, schedule: Q01DX009 (ip), vehicle: Klucel (hydroxypropylcellulose) (HPC)
[17] = dose: 200.0 mg/kg/injection, schedule: Q01DX009 (ip), vehicle: Klucel (hydroxypropylcellulose) (HPC)
[18] = dose: 400.0 mg/kg/injection, schedule: Q01DX001 (ip), vehicle: saline
[19] = dose: 100.0 mg/kg/injection, schedule: Q01DX001 (ip), vehicle: saline with Tween-80
[20] = dose: 200.0 mg/kg/injection, schedule: Q01DX001 (ip), vehicle: saline with Tween-80
[21] = dose: 400.0 mg/kg/injection, schedule: Q01DX009 (ip), vehicle: Klucel (hydroxypropylcellulose) (HPC)

Measured: T/C

COc1ccc(C(C)=O)cc1OCc1ccccc1
inactive: dose: 100.0 mg/kg/injection, schedule: Q01DX009 (ip), vehicle: water 112 % of control | dose: 100.0 mg/kg/injection, schedule: Q04DX003 (ip), vehicle: water 98 % of control | dose: 200.0 mg/kg/injection, schedule: Q01DX009 (ip), vehicle: water 108 % of control | dose: 200.0 mg/kg/injection, schedule: Q04DX003 (ip), vehicle: water 100 % of control | dose: 400.0 mg/kg/injection, schedule: Q01DX009 (ip), vehicle: water 103 % of control | dose: 400.0 mg/kg/injection, schedule: Q04DX003 (ip), vehicle: water 93 % of control

N#Cc1nc2ccccc2nc1C#N
inactive: [1] 102 % of control | [2] 97 % of control | [3] 102 % of control | [4] 88 % of control

c1ccc(Cc2cccc[n+]2Cc2ccccc2)cc1
inactive: dose: 12.5 mg/kg/injection, schedule: Q04DX003 (ip), vehicle: saline 102 % of control | dose: 25.0 mg/kg/injection, schedule: Q04DX003 (ip), vehicle: saline 105 % of control

COc1ccc(CC(=O)NCCc2ccc3c(c2)OCO3)cc1OC
inactive: dose: 50.0 mg/kg/injection, schedule: Q01DX009 (ip), vehicle: saline with Tween-80 89 % of control | [5] 91 % of control | [6] 92 % of control | [7] 92 % of control | [8] 96 % of control

CN(C)CC1CCCCCC(Br)C1=O (centres undefined)
inactive: [9] 98 % of control | [10] 95 % of control | [11] 107 % of control

CCOC(=O)c1cnc(C)[nH]c1=O
inactive: dose: 12.5 mg/kg/injection, schedule: Q01DX009 (ip), vehicle: saline 100 % of control | dose: 25.0 mg/kg/injection, schedule: Q01DX009 (ip), vehicle: saline 99 % of control | dose: 50.0 mg/kg/injection, schedule: Q01DX009 (ip), vehicle: saline 94 % of control | [12] 108 % of control | dose: 100.0 mg/kg/injection, schedule: Q01DX009 (ip), vehicle: saline 101 % of control | [13] 101 % of control

CCCCCCCCCCNc1ccc(Cl)nn1
inactive: [6] 93 % of control | [8] 93 % of control | [14] 90 % of control

CSc1ccc([PH+](c2ccc(SC)cc2)c2ccc(SC)cc2)cc1.CSc1ccc([PH+](c2ccc(SC)cc2)c2ccc(SC)cc2)cc1.[Cl][Hg][Cl]
inactive: [15] 89 % of control | [16] 92 % of control and 98 % of control | [17] 94 % of control and 103 % of control

CC(=O)Nc1ccccc1C(C#N)Cc1ccccc1 (centres undefined)
inactive: [9] 96 % of control | [10] 101 % of control | [11] 101 % of control

O=C(Nc1ccc(S(=O)(=O)NC2CCCCC2)cc1)Oc1ccc([N+](=O)[O-])cc1
inactive: [12] 96 % of control | [13] 100 % of control | [18] 100 % of control

COc1ccc2nc3cc(Cl)ccc3c(Nc3ccc(O)c(CN(CCCl)CCCl)c3)c2c1
inactive: dose: 0.3 mg/kg/injection, schedule: Q01DX Z (ip), vehicle: saline 118 % of control | dose: 4.8 mg/kg/injection, schedule: Q01DX Z (ip), vehicle: saline 94 % of control | dose: 5.0 mg/kg/injection, schedule: Q01DX001 (ip), vehicle: saline 111 % of control | dose: 7.5 mg/kg/injection, schedule: Q04DX003 (ip), vehicle: saline 120 % of control | dose: 10.0 mg/kg/injection, schedule: Q01DX001 (ip), vehicle: saline 108 % of control | dose: 20.0 mg/kg/injection, schedule: Q01DX001 (ip), vehicle: saline 104 % of control | [12] 87 % of control

CC(c1ccc2ccccc2c1)c1ccccc1C(=O)O (centres undefined)
inactive: dose: 100.0 mg/kg/injection, schedule: Q01DX001 (ip), vehicle: gum acacia 94 % of control | dose: 200.0 mg/kg/injection, schedule: Q01DX001 (ip), vehicle: gum acacia 102 % of control | dose: 400.0 mg/kg/injection, schedule: Q01DX001 (ip), vehicle: gum acacia 89 % of control

Nc1nc2ccc(CNc3ccc(C(=O)NC(CC(=O)O)C(=O)O)cc3)cc2c(=O)[nH]1 (centres undefined)
inactive: dose: 18.7 mg/kg/injection, schedule: Q01DX001 (ip), vehicle: saline with Tween-80 102 % of control | dose: 37.5 mg/kg/injection, schedule: Q01DX001 (ip), vehicle: saline with Tween-80 113 % of control | dose: 75.0 mg/kg/injection, schedule: Q01DX001 (ip), vehicle: saline with Tween-80 115 % of control | [19] 109 % of control | [20] 109 % of control

C=CCc1ccc(OC(=O)Nc2cc(Cl)ccc2C)c(OC)c1
inactive: [19] 93 % of control | [5] 106 % of control and 87 % of control | dose: 100.0 mg/kg/injection, schedule: Q04DX002 (ip), vehicle: saline with Tween-80 101 % of control and 92 % of control | [6] 103 % of control | [20] 97 % of control | [7] 101 % of control and 87 % of control | dose: 200.0 mg/kg/injection, schedule: Q04DX002 (ip), vehicle: saline with Tween-80 95 % of control and 97 % of control | [8] 101 % of control | dose: 400.0 mg/kg/injection, schedule: Q01DX001 (ip), vehicle: saline with Tween-80 92 % of control | dose: 400.0 mg/kg/injection, schedule: Q01DX009 (ip), vehicle: saline with Tween-80 101 % of control and 102 % of control | dose: 400.0 mg/kg/injection, schedule: Q04DX002 (ip), vehicle: saline with Tween-80 95 % of control and 98 % of control | [14] 101 % of control

COc1ccc(Cc2nc3ccc(Cl)cc3[nH]2)cc1
inactive: dose: 100.0 mg/kg/injection, schedule: Q04DX003 (ip), vehicle: other 101 % of control | dose: 200.0 mg/kg/injection, schedule: Q04DX003 (ip), vehicle: other 98 % of control | dose: 400.0 mg/kg/injection, schedule: Q04DX003 (ip), vehicle: other 98 % of control

Cc1cccc(C)c1NC(=O)Nc1ccc(C(=O)O)c(O)c1
inactive: [16] 110 % of control | [17] 95 % of control | [21] 97 % of control

NC(=O)N1CCCC1
inactive: [12] 98 % of control | [13] 95 % of control | [18] 95 % of control

CCCCCCCCN(C)N=Nc1ccccc1C(=O)O
inactive: [1] 109 % of control | [2] 102 % of control | [3] 106 % of control and 116 % of control | [4] 95 % of control | [15] 122 % of control | dose: 50.0 mg/kg/injection, schedule: Q04DX003 (ip), vehicle: Klucel (hydroxypropylcellulose) (HPC) 108 % of control | dose: 60.0 mg/kg/injection, schedule: Q01DX009 (ip), vehicle: Klucel (hydroxypropylcellulose) (HPC) 122 % of control | dose: 100.0 mg/kg/injection, schedule: Q04DX003 (ip), vehicle: Klucel (hydroxypropylcellulose) (HPC) 114 % of control | [17] 114 % of control | [21] 92 % of control
